According to patent US20120142705A1, “ISATIN AND OXINDOLE COMPOUNDS” (priority 2010, published 2012):

Target: T1, Recombinant human liver GK1 (GST-GK) (Homo sapiens, UniProt P35557)
T1 construct: made in house; host or cells: E. coli
T1 sequence (P35557 1-466 isoform P35557-2): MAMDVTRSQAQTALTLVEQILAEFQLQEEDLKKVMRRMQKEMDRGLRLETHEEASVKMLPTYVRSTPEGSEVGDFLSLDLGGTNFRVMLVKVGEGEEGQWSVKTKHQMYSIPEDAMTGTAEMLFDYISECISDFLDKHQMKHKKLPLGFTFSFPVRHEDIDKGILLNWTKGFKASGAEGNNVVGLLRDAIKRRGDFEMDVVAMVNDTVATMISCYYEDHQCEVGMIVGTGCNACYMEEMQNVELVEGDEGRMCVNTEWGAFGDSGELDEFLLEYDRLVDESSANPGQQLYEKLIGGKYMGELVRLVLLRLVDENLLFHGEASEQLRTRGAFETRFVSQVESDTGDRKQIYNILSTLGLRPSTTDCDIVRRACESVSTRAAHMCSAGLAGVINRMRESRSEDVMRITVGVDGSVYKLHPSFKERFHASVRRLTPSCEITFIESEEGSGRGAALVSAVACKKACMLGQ
Test: In vitro glucokinase activity, G6PDH-coupled spectrophotometric assay
Assay type: biochemical
Settings: 5 mM D-glucose, 30° C.; for SC1.5 (concentration of activator that produced a 50% increase in the activity of GK): pH 7.1
Procedure: Glucokinase In Vitro Assay Protocol: Glucokinase (GK) was assayed by coupling the production of glucose-6-phosphate to the generation of NADH with glucose-6-phosphate dehydrogenase (G6PDH, 0.75-1 kunits/mg; Boehringer Mannheim, Indianapolis, Ind.) from Leuconostoc mesenteroides as the coupling enzyme (Scheme 2).
Recombinant human liver GK1 was expressed in E. coli as a glutathione S-transferase fusion protein (GST-GK) [Liang et al, 1995] and was purified by chromatography over a glutathione-Sepharose 4B affinity column using the procedure provided by the manufacturer (Amersham Pharmacia Biotech, Piscataway, N.J.).
The assay was conducted at 30° C. in a flat bottom 96-well tissue culture plate from Costar (Cambridge, Mass.) with a final incubation volume of 120 μL. The incubation reaction contained the following: 25 mM Hepes buffer (pH 7.1), 25 mM KCl, 5 mM D-glucose, 1 mM ATP, 1.8 mM NAD, 2 mM MgCl2, 1 μM sorbitol-6-phosphate, 1 mM dithiothreitol, test drug or 10% dimethylsulfoxide, ˜7 units/ml G6PDH, and GK (see below). All organic reagents were >98% pure and were from Boehringer Mannheim with the exceptions of D-glucose and Hepes which were from Sigma Chemical Co, St Louis, Mo. Test compounds were dissolved in dimethylsulfoxide and were added to the incubation reaction minus GST-GK in a volume of 12 μL to yield a final dimethylsulfoxide concentration of 10%. This mix was pre-incubated in the temperature controlled chamber of a SPECTRAmax 250 microplate spectrophotometer (Molecular Devices Corporation, Sunnyvale, Calif.) for 10 minutes to allow temperature equilibrium and then the reaction was started by the addition of 20 μL GST-GK.
After addition of enzyme, the increase in optical density (OD) at 340 nm was monitored spectrophotometrically to determine the rate of change (OD340 per min). The GK activity (OD340/min) in control wells (10% dimethylsulfoxide minus GK activators) was compared with the activity in wells containing test GK activators, and the concentration of activator that produced a 50% increase in the activity of GK, i.e., the SC1.5, was calculated.

Compound | SC1.5 (concentration of activator that produced a 50% increase in the activity of GK) [µM] | fold induction at 30 µM
O=C1C(=O)N(C(CC2CCCC2)C(=O)Nc2cnccn2)c2ccc(Br)cc21 (stereo not shown) [Example 60, 2-(5-Bromo-2,3-dioxo-2,3-dihydro-indol-1-yl)-3-cyclopentyl-N-pyrazin-2-yl-propionamide] | 5.48 | 
Cc1ccc2c(c1)C(=O)C(=O)N2C(CC1CCCC1)C(=O)Nc1ccn(C)n1 (stereo not shown) [Example 78, 3-Cyclopentyl-2-(5-methyl-2,3-dioxo-2,3-dihydro-indol-1-yl)-N-(1-methyl-1H-pyrazol-3-yl)-propionamide] | 29.38 | 
Cn1ccc(NC(=O)C(CC2CCCC2)N2C(=O)C(=O)c3cc(OC(F)(F)F)ccc32)n1 (stereo not shown) [Example 31, 3-Cyclopentyl-2-(2,3-dioxo-5-trifluoromethoxy-2,3-dihydro-indol-1-yl)-N-(1-methyl-1H-pyrazol-3-yl)-propionamide] | 1.65 | 
Cn1ccc(NC(=O)C(CC2CCCC2)N2C(=O)Cc3ccccc32)n1 (stereo not shown) [Example 7, 3-Cyclopentyl-N-(1-methyl-1H-pyrazol-3-yl)-2-(2-oxo-2,3-dihydro-indol-1-yl)-propionamide] | 17.55 | 
O=C(Nc1nccs1)C(CC1CCCC1)N1C(=O)Cc2ccccc21 (stereo not shown) [Example 3, 3-Cyclopentyl-2-(2-oxo-2,3-dihydro-indol-1-yl)-N-thiazol-2-yl-propionamide] | 3.3 | 
COc1ccc2c(c1)C(=O)C(=O)N2C(CC1CCCC1)C(=O)Nc1nccs1 (stereo not shown) [Example 48, 3-Cyclopentyl-2-(5-methoxy-2,3-dioxo-2,3-dihydro-indol-1-yl)-N-thiazol-2-yl-propionamide] | 5.48 | 
Cc1ccc2c(c1)N(C(CC1CCCC1)C(=O)Nc1nccs1)C(=O)C2 (stereo not shown) [Example 129, 3-Cyclopentyl-2-(6-methyl-2-oxo-2,3-dihydro-indol-1-yl)-N-thiazol-2-yl-propionamide] | 0.53 | 
O=C(Nc1nccs1)C(CC1CCCC1)N1C(=O)Cc2ccc(Br)cc21 (stereo not shown) [Example 134, 2-(6-Bromo-2-oxo-2,3-dihydro-indol-1-yl)-3-cyclopentyl-N-thiazol-2-yl-propionamide] | 0.19 | 
O=C1C(=O)N(C(CC2CCCC2)C(=O)Nc2nccs2)c2cc(Cl)ccc21 (stereo not shown) [Example 117, 2-(6-Chloro-2,3-dioxo-2,3-dihydro-indol-1-yl)-3-cyclopentyl-N-thiazol-2-yl-propionamide] | 0.6 | 
Cn1ccc(NC(=O)C(CC2CCCC2)N2C(=O)Cc3cc(Br)ccc32)n1 (stereo not shown) [Example 65, 2-(5-Bromo-2-oxo-2,3-dihydro-indol-1-yl)-3-cyclopentyl-N-(1-methyl-1H-pyrazol-3-yl)-propionamide] | 2.71 | 
O=C(Nc1nccs1)C(CC1CCCC1)N1C(=O)Cc2cc(Br)ccc21 (stereo not shown) [Example 66, 2-(5-Bromo-2-oxo-2,3-dihydro-indol-1-yl)-3-cyclopentyl-N-thiazol-2-yl-propionamide] | 1.69 | 
COc1ccc2c(c1)C(=O)C(=O)N2C(CC1CCCC1)C(=O)Nc1ccn(C)n1 (stereo not shown) [Example 47, 3-Cyclopentyl-2-(5-methoxy-2,3-dioxo-2,3-dihydro-indol-1-yl)-N-(1-methyl-1H-pyrazol-3-yl)-propionamide] | 23.88 | 

The next lines start with the values.

SC1.5 (concentration of activator that produced a 50% increase in the activity of GK) [µM] | fold induction at 30 µM | Compound
1.49 |  | CC(C)CC(C(=O)Nc1ccccn1)N1C(=O)C(=O)c2ccc(Cl)cc21 (stereo not shown) [Example 110, 2-(6-Chloro-2,3-dioxo-2,3-dihydro-indol-1-yl)-4-methyl-pentanoic acid pyridin-2-ylamide]
0.48 |  | O=C(Nc1ccccn1)C(CC1CCCC1)N1C(=O)Cc2cc(Br)ccc21 (stereo not shown) [Example 64, 2-(5-Bromo-2-oxo-2,3-dihydro-indol-1-yl)-3-cyclopentyl-N-pyridin-2-yl-propionamide]
13.89 |  | COc1ccc2c(c1)CC(=O)N2C(CC(C)C)C(=O)Nc1ccccn1 (stereo not shown) [Example 57, 2-(5-Methoxy-2-oxo-2,3-dihydro-indol-1-yl)-4-methyl-pentanoic acid pyridin-2-ylamide]
6.74 |  | CC(C)CC(C(=O)Nc1nccs1)N1C(=O)Cc2cc(Cl)ccc21 (stereo not shown) [Example 105, 2-(5-Chloro-2-oxo-2,3-dihydro-indol-1-yl)-4-methyl-pentanoic acid thiazol-2-ylamide]
7.72 |  | CC(C)CC(C(=O)Nc1nccs1)N1C(=O)C(=O)c2c(Cl)cccc21 (stereo not shown) [Example 20, 2-(4-Chloro-2,3-dioxo-2,3-dihydro-indol-1-yl)-4-methyl-pentanoic acid thiazol-2-ylamide]
12.29 |  | COc1ccc2c(c1)C(=O)C(=O)N2C(CC1CCCC1)C(=O)Nc1cnccn1 (stereo not shown) [Example 45, 3-Cyclopentyl-2-(5-methoxy-2,3-dioxo-2,3-dihydro-indol-1-yl)-N-pyrazin-2-yl-propionamide]
 | 1.16 | Cc1ccc2c(c1)C(=O)C(=O)N2C(CC(C)C)C(=O)Nc1ccccn1 (stereo not shown) [Example 85, 4-Methyl-2-(5-methyl-2,3-dioxo-2,3-dihydro-indol-1-yl)-pentanoic acid pyridin-2-ylamide]
3.67 |  | CC(C)CC(C(=O)Nc1cnccn1)N1C(=O)Cc2cc(OC(F)(F)F)ccc21 (stereo not shown) [Example 44, 4-Methyl-2-(2-oxo-5-trifluoromethoxy-2,3-dihydro-indol-1-yl)-pentanoic acid pyrazin-2-ylamide]
13.42 |  | CC(C)CC(C(=O)Nc1ccccn1)N1C(=O)C(=O)c2c(Cl)cccc21 (stereo not shown) [Example 18, 2-(4-Chloro-2,3-dioxo-2,3-dihydro-indol-1-yl)-4-methyl-pentanoic acid pyridin-2-ylamide]
4.76 |  | COc1ccc2c(c1)CC(=O)N2C(CC1CCCC1)C(=O)Nc1cnccn1 (stereo not shown) [Example 52, 3-Cyclopentyl-2-(5-methoxy-2-oxo-2,3-dihydro-indol-1-yl)-N-pyrazin-2-yl-propionamide]
 | 1.39 | CC(C)CC(C(=O)Nc1ccn(C)n1)N1C(=O)Cc2c(Cl)cccc21 (stereo not shown) [Example 27, 2-(4-Chloro-2-oxo-2,3-dihydro-indol-1-yl)-4-methyl-pentanoic acid (1-methyl-1H-pyrazol-3-yl)-amide]
 | 1.5 | CC(C)CC(C(=O)Nc1nccs1)N1C(=O)C(=O)c2cc(Br)ccc21 (stereo not shown) [Example 71, 2-(5-Bromo-2,3-dioxo-2,3-dihydro-indol-1-yl)-4-methyl-pentanoic acid thiazol-2-ylamide]
18.09 |  | CC(C)CC(C(=O)Nc1ccccn1)N1C(=O)Cc2ccccc21 (stereo not shown) [Example 12, 4-Methyl-2-(2-oxo-2,3-dihydro-indol-1-yl)-pentanoic acid pyridin-2-ylamide]
6.67 |  | Cc1ccc2c(c1)C(=O)C(=O)N2C(CC1CCCC1)C(=O)Nc1ccccn1 (stereo not shown) [Example 77, 3-Cyclopentyl-2-(5-methyl-2,3-dioxo-2,3-dihydro-indol-1-yl)-N-pyridin-2-yl-propionamide]
16.78 |  | CC(C)CC(C(=O)Nc1cnccn1)N1C(=O)Cc2c(Cl)cccc21 (stereo not shown) [Example 25, 2-(4-Chloro-2-oxo-2,3-dihydro-indol-1-yl)-4-methyl-pentanoic acid pyrazin-2-ylamide]
2.57 |  | CC(C)CC(C(=O)Nc1ccccn1)N1C(=O)C(=O)c2cc(OC(F)(F)F)ccc21 (stereo not shown) [Example 38, 2-(2,3-Dioxo-5-trifluoromethoxy-2,3-dihydro-indol-1-yl)-4-methyl-pentanoic acid pyridin-2-ylamide]
